In the NIST ThermoML archive (doi:10.1016/j.tca.2016.05.001):
Values joined by “and” are separate entries in the source; they are usually repeats but may differ in a detail not shown here. Identical values can stand only once.

Key:
[1] = for Triple point temperature: DSC
[2] = Molar enthalpy of transition or fusion; conditions: Crystal; DSC

c1cnc2c(c1)ccc1ncccc12 [1,5-diazaphenanthrene]
[1]
Conditions	vapor or sublimation pressure
315 K, Crystal, Torsion effusion method	3.8e-05 kPa
315.1 K, Crystal, Torsion effusion method	3.8e-05 kPa
317.3 K, Crystal, Torsion effusion method	4.7e-05 kPa
317.9 K, Crystal, Torsion effusion method	5.7e-05 kPa
318.6 K, Crystal, Torsion effusion method	5.7e-05 kPa
319.5 K, Crystal, Torsion effusion method	6.7e-05 kPa
320.5 K, Crystal, Torsion effusion method	7.6e-05 kPa
320.8 K, Crystal, Torsion effusion method	7.6e-05 kPa
322.6 K, Crystal, Torsion effusion method	0.0001 kPa
322.9 K, Crystal, Torsion effusion method	0.00011 kPa
323 K, Crystal, Torsion effusion method	0.000114 kPa
323.8 K, Crystal, Torsion effusion method	0.00011 kPa
325.3 K, Crystal, Torsion effusion method	0.000142 kPa
325.6 K, Crystal, Torsion effusion method	0.00014 kPa
326 K, Crystal, Torsion effusion method	0.00015 kPa
326.2 K, Crystal, Torsion effusion method	0.00017 kPa
327.5 K, Crystal, Torsion effusion method	0.00021 kPa
328.2 K, Crystal, Torsion effusion method	0.000208 kPa and 0.00021 kPa
328.7 K, Crystal, Torsion effusion method	0.00023 kPa
329.1 K, Crystal, Torsion effusion method	0.00025 kPa
329.6 K, Crystal, Torsion effusion method	0.00026 kPa
330.5 K, Crystal, Torsion effusion method	0.00028 kPa
331 K, Crystal, Torsion effusion method	0.0003 kPa
331.5 K, Crystal, Torsion effusion method	0.00033 kPa
332 K, Crystal, Torsion effusion method	0.00032 kPa
333 K, Crystal, Torsion effusion method	0.00041 kPa
334.5 K, Crystal, Torsion effusion method	0.00044 kPa
334.9 K, Crystal, Torsion effusion method	0.00051 kPa
335 K, Crystal, Torsion effusion method	0.00047 kPa
336.2 K, Crystal, Torsion effusion method	0.00061 kPa
336.5 K, Crystal, Torsion effusion method	0.00055 kPa
337.7 K, Crystal, Torsion effusion method	0.00072 kPa
338.3 K, Crystal, Torsion effusion method	0.00072 kPa
339.3 K, Crystal, Torsion effusion method	0.00072 kPa
340 K, Crystal, Torsion effusion method	0.00095 kPa and 0.00091 kPa
340.4 K, Crystal, Torsion effusion method	0.00087 kPa
341.5 K, Crystal, Torsion effusion method	0.00112 kPa
342.6 K, Crystal, Torsion effusion method	0.00108 kPa
343.5 K, Crystal, Torsion effusion method	0.00127 kPa
380.1 K, Liquid, Rate of evaporation	0.023 kPa
382.1 K, Liquid, Rate of evaporation	0.028 kPa
385.6 K, Liquid, Rate of evaporation	0.032 kPa
388.2 K, Liquid, Rate of evaporation	0.037 kPa
390.3 K, Liquid, Rate of evaporation	0.043 kPa
393.1 K, Liquid, Rate of evaporation	0.05 kPa
395.6 K, Liquid, Rate of evaporation	0.057 kPa
398.1 K, Liquid, Rate of evaporation	0.065 kPa
403.1 K, Liquid, Rate of evaporation	0.086 kPa
405.6 K, Liquid, Rate of evaporation	0.097 kPa
408.1 K, Liquid, Rate of evaporation	0.113 kPa
410.9 K, Liquid, Rate of evaporation	0.132 kPa
413.1 K, Liquid, Rate of evaporation	0.145 kPa
418.1 K, Liquid, Rate of evaporation	0.187 kPa
423.1 K, Liquid, Rate of evaporation	0.24 kPa
428.1 K, Liquid, Rate of evaporation	0.302 kPa

Conditions	Triple point temperature [K]
[1], Crystal	351.7

Conditions	Molar enthalpy of transition or fusion [kcal/mol]
[2]	6.12

c1cnc2c(c1)ccc1cccnc12 [1,10-phenanthroline]
[1]
Conditions	vapor or sublimation pressure [kPa]
308.1 K, Crystal, Calculated from knudsen effusion weight loss	8.3e-07
313.1 K, Crystal, Calculated from knudsen effusion weight loss	1.76e-06
318.1 K, Crystal, Calculated from knudsen effusion weight loss	3.3e-06
320.9 K, Crystal, Calculated from knudsen effusion weight loss	4.6e-06
323.1 K, Crystal, Calculated from knudsen effusion weight loss	5.5e-06
325.8 K, Crystal, Calculated from knudsen effusion weight loss	8e-06
327.9 K, Crystal, Calculated from knudsen effusion weight loss	9.9e-06
330.9 K, Crystal, Calculated from knudsen effusion weight loss	1.53e-05
332.8 K, Crystal, Calculated from knudsen effusion weight loss	1.71e-05
335.7 K, Crystal, Calculated from knudsen effusion weight loss	2.6e-05
337.7 K, Crystal, Calculated from knudsen effusion weight loss	3e-05
340.6 K, Crystal, Calculated from knudsen effusion weight loss	4.2e-05
342.6 K, Crystal, Calculated from knudsen effusion weight loss	5.1e-05
345.5 K, Crystal, Calculated from knudsen effusion weight loss	7.7e-05
345.6 K, Crystal, Calculated from knudsen effusion weight loss	7.5e-05
347.5 K, Crystal, Calculated from knudsen effusion weight loss	9.2e-05
350.8 K, Crystal, Calculated from knudsen effusion weight loss	0.000131
352.7 K, Crystal, Calculated from knudsen effusion weight loss	0.000148
354.7 K, Crystal, Calculated from knudsen effusion weight loss	0.000194
357.7 K, Crystal, Calculated from knudsen effusion weight loss	0.00024
358.6 K, Crystal, Calculated from knudsen effusion weight loss	0.00025
360.5 K, Crystal, Calculated from knudsen effusion weight loss	0.0003
360.6 K, Crystal, Calculated from knudsen effusion weight loss	0.00033
361.8 K, Crystal, Calculated from knudsen effusion weight loss	0.00034
362.5 K, Crystal, Calculated from knudsen effusion weight loss	0.00038
363.4 K, Crystal, Calculated from knudsen effusion weight loss	0.0004
365 K, Crystal, Calculated from knudsen effusion weight loss	0.00046
366.3 K, Crystal, Calculated from knudsen effusion weight loss	0.00052
367.4 K, Crystal, Calculated from knudsen effusion weight loss	0.0006
367.6 K, Crystal, Calculated from knudsen effusion weight loss	0.00059
369.3 K, Crystal, Calculated from knudsen effusion weight loss	0.00069
370.9 K, Crystal, Calculated from knudsen effusion weight loss	0.0008
372.2 K, Crystal, Calculated from knudsen effusion weight loss	0.0009
374 K, Crystal, Calculated from knudsen effusion weight loss	0.00107
375.1 K, Crystal, Calculated from knudsen effusion weight loss	0.00119
377.2 K, Crystal, Calculated from knudsen effusion weight loss	0.0014
378.1 K, Crystal, Calculated from knudsen effusion weight loss	0.00154
380.1 K, Crystal, Calculated from knudsen effusion weight loss	0.00182
381 K, Crystal, Calculated from knudsen effusion weight loss	0.00199
382.8 K, Crystal, Calculated from knudsen effusion weight loss	0.00229
384.2 K, Crystal, Calculated from knudsen effusion weight loss	0.00264
385.6 K, Crystal, Calculated from knudsen effusion weight loss	0.00292
387.1 K, Crystal, Calculated from knudsen effusion weight loss	0.00335
393.2 K, Liquid, Rate of evaporation	0.0054
395.9 K, Liquid, Rate of evaporation	0.0061
398.6 K, Liquid, Rate of evaporation	0.0073
401.3 K, Liquid, Rate of evaporation	0.0084
404.1 K, Liquid, Rate of evaporation	0.0094
406.8 K, Liquid, Rate of evaporation	0.0113
409.5 K, Liquid, Rate of evaporation	0.0131
412.3 K, Liquid, Rate of evaporation	0.0147
415 K, Liquid, Rate of evaporation	0.0173
417.7 K, Liquid, Rate of evaporation	0.0206
420.5 K, Liquid, Rate of evaporation	0.024

Conditions	Triple point temperature [K]
[1], Crystal	390.9

Conditions	Molar enthalpy of transition or fusion [kcal/mol]
[2]	3.2

c1cnc2ccc3ncccc3c2c1 [4,7-phenanthroline]
[1]
Conditions	vapor or sublimation pressure
336.8 K, Crystal, Torsion effusion method	2.8e-05 kPa
337.1 K, Crystal, Torsion effusion method	2.8e-05 kPa
339.5 K, Crystal, Torsion effusion method	3.8e-05 kPa
340 K, Crystal, Torsion effusion method	3.8e-05 kPa
340.1 K, Crystal, Torsion effusion method	3.8e-05 kPa
341 K, Crystal, Torsion effusion method	4.7e-05 kPa
341.9 K, Crystal, Torsion effusion method	4.7e-05 kPa
342.8 K, Crystal, Torsion effusion method	5.7e-05 kPa
342.9 K, Crystal, Torsion effusion method	5.7e-05 kPa
343.3 K, Crystal, Torsion effusion method	5.7e-05 kPa
346 K, Crystal, Torsion effusion method	8.5e-05 kPa
346.6 K, Crystal, Torsion effusion method	9.4e-05 kPa
346.7 K, Crystal, Torsion effusion method	9.4e-05 kPa
348.3 K, Crystal, Torsion effusion method	0.000114 kPa
349 K, Crystal, Torsion effusion method	0.000114 kPa
349.4 K, Crystal, Torsion effusion method	0.000133 kPa
350.6 K, Crystal, Torsion effusion method	0.000151 kPa
350.8 K, Crystal, Torsion effusion method	0.000133 kPa
351.7 K, Crystal, Torsion effusion method	0.00017 kPa
351.8 K, Crystal, Torsion effusion method	0.00017 kPa
352.7 K, Crystal, Torsion effusion method	0.00019 kPa
352.8 K, Crystal, Torsion effusion method	0.00017 kPa
354.4 K, Crystal, Torsion effusion method	0.000208 kPa
354.7 K, Crystal, Torsion effusion method	0.000219 kPa
354.8 K, Crystal, Torsion effusion method	0.000228 kPa
355.5 K, Crystal, Torsion effusion method	0.000264 kPa
355.7 K, Crystal, Torsion effusion method	0.000247 kPa
355.8 K, Crystal, Torsion effusion method	0.000247 kPa
356.4 K, Crystal, Torsion effusion method	0.000264 kPa
358.2 K, Crystal, Torsion effusion method	0.00034 kPa and 0.000323 kPa
358.7 K, Crystal, Torsion effusion method	0.000361 kPa
359.4 K, Crystal, Torsion effusion method	0.000379 kPa
360.2 K, Crystal, Torsion effusion method	0.000415 kPa
360.5 K, Crystal, Torsion effusion method	0.000436 kPa and 0.000415 kPa
361.4 K, Crystal, Torsion effusion method	0.000512 kPa
362.2 K, Crystal, Torsion effusion method	0.000472 kPa
363.1 K, Crystal, Torsion effusion method	0.000533 kPa
363.2 K, Crystal, Torsion effusion method	0.000571 kPa
364.1 K, Crystal, Torsion effusion method	0.000625 kPa
366.2 K, Crystal, Torsion effusion method	0.000819 kPa and 0.000741 kPa
368.4 K, Crystal, Torsion effusion method	0.000951 kPa
368.7 K, Crystal, Torsion effusion method	0.00102 kPa
369.6 K, Crystal, Torsion effusion method	0.001041 kPa
463.1 K, Liquid, Rate of evaporation	1.495 kPa
468.1 K, Liquid, Rate of evaporation	1.882 kPa
473.1 K, Liquid, Rate of evaporation	2.253 kPa
477.9 K, Liquid, Rate of evaporation	2.67 kPa
481.9 K, Liquid, Rate of evaporation	3.103 kPa
486.5 K, Liquid, Rate of evaporation	4.064 kPa
492.1 K, Liquid, Rate of evaporation	5.014 kPa
496.2 K, Liquid, Rate of evaporation	6.311 kPa

Conditions	Triple point temperature [K]
[1], Crystal	444.1

Conditions	Molar enthalpy of transition or fusion [kcal/mol]
[2]	5.35
